Assay results reported in patent publication US5639734A, “Disaccharide inflammation inhibitors and uses thereof” (priority 1994, dated 1997).
Entries after “also recorded” stand apart in the source; their conditions may differ. Where two headings read alike, the source gives them in different places.

Key:
F9 cells [1] = assay: Uptake of disaccharides by F9 cells, fluorescence assay; format: in vitro ADME, mouse; settings: for Uptake: Table I, control value without glycoside (1.0) subtracted
F9 cells [2] = assay: Priming of [3H]GlcN-labeled oligosaccharides in F9 cells; format: cell-based, mouse; settings: for Priming of oligosaccharides (in words) / Priming: F9 cells; for Priming of oligosaccharides (in words): [3H]GlcN; for Priming: Table I, per μg cell protein, control value (30) subtracted; for Fraction of labeled oligosaccharides that were charged (bound to QAE-Sephadex): anion-exchange chromatography
sLe^x on HL-60 cells = assay: FACS of sLe^x expression on HL-60 cells with mAb CSLEX-1; format: cell-based, human; settings: for Inhibition of sialyl Lewis X formation in HL-60 cells (in words): concentration not given
[3] = test system: HL-60 adhesion to activated human umbilical vein endothelial cells (HUVEC); assay: Adhesion of HL-60 cells to TNF-α-activated HUVEC; format: cell-based; settings: for Inhibition of HL-60 / leukocyte adhesion (in words): TNF-α-treated HUVEC, concentration not given
[4] = test system: pgsA-745 cells (xylosyltransferase deficient Chinese hamster ovary cells); assay: Priming of [35S]glycosaminoglycan chains in xylosyltransferase-deficient CHO mutant pgsA-745 cells; format: cell-based; settings: FIG. 3, 5 hours at 37° C.; for Priming of glycosaminoglycan chains (in words): up to 500 μM; for minimal effective concentration: Cricetulus griseus, read-out: Concentration at which glycosaminoglycan chains are primed
Procedure: Various compounds at the indicated concentrations were provided to confluent Chinese hamster ovary cells in a 96 well plate. Glycosaminoglycan synthesis was measured by autoradiography of [^35 S]-glycosaminoglycan collected on a postively charged nylon membrane. 1: Xylβ-0-2-naphthol; 2: Xylβ1→6Gal-0-2-naphthol; 3: Xylβ1→6Gal(Me)-0-2-naphthol; 4: Xylβ1→6Gal(Me)2 -0-2-naphthol; 5: Xylβ1→6Gal(Me)3 -0-2-naphthol; 6: Xyl(Ac)3 β-0-2-naphthol; 7:Xyl(Ac)3 β1→6Gal(Ac)3 -0-2-naphthol.
Priming of glycosaminoglycan chains was measured in pgsA-745 cells deficient in xylosyltransfersase. The cells were grown to confluence in 96-well microtiter plates (Falcon). Fresh medium (0.2 ml) containing 50 μCi/ml of H2^35 SO4 (25-40 Ci/mg) and the test compounds were added to the wells. The top row of wells contained […] of glycoside and each subsequent row contained a serial dilution (1:3^n, v/v). Cells were incubated for 5 hours at 37° C. and solubilized by adding 20 μl of 0.5M NaOH. The individual wells were adjusted to 0.2% (w/v) Zwittergent 3-12, 25 μg/ml chondroitin sulfate, 0.2M acetic acid and 10 mM Na2 SO4. The samples were transferred to a GeneScreen Plus membrane (Dupont-NEN) placed on top of a piece of 1Chr paper on a vacuum Minifold (Schleicher & Schuell). A wash solution of 0.2% (w/v) Zwittergent 3-12, 0.2M acetic acid and 10 mM Na2 SO4 (0.5 ml) was passed through each well. The membranes were removed from the Minifold, soaked for 5 minutes in 20 ml of wash solution, air-dried and exposed to RX X-ray film for 10-18 hours.
Therefore, uptake of the disaccharide was measured indirectly by the determining the incorporation of ^35 SO4 into glycosaminoglycan chains. To distinguish glycosaminoglycans produced on the glycoside from those made on endogenous proteoglycans, a Chinese hamster ovary cell mutant deficient in xylosyltransferase was made. […] [^35 S]glycosaminoglycan synthesis was measured by incubating mutant cells in a 96 well plate with glycoside derivatives at different doses. The cells and spent media were then transferred to a positively charged nylon membrane to detect newly made chains by autoradiography.

[5] = test system: Chinese hamster ovary cells; assay: Uptake of glycosides by Chinese hamster ovary cells, fluorescence assay; settings: for Uptake (in words): CHO cells, 37° C., FIG. 1 and 2 (100 μM in FIG. 2); for Uptake: relative to Xylβ-0-2-naphthol 1.0 unit
Procedure: Confluent monolayers of Chinese hamster ovary cells were incubated with the indicated concentrations of Xylβ-0-2-naphthol at 37° C. for 30 minutes. The amount of glycoside taken up was determined by fluorescence assay.
The various glycosides were added (100 μM) to confluent Chinese hamster ovary cell monolayers and at the times indicated, the amount of glycoside taken up was quantitated by fluorescence assay. Filled circles: Xylβ-0-2-naphthol; filled square: Galβ-0-2-naphthol; unfilled triangle: Galβ1→4Xylβ-0-2-naphthol; filled triangle: Galβ1 →3Galβ0-2-naphthol.
Compounds were dissolved in DMSO and added to growth medium such that the final concentration of vehicle was 0.5% (v/v). Confluent cells were incubated with supplemented growth medium at 37° C. for various times. The cultures were placed on ice, the medium was aspirated and the cells were washed three times with cold PBS containing 1 mg/ml of bovine serum albumin. Cells were solubilized in a small volume of 0.1M NaOH and the extracts were neutralized with one mole equivalent of acetic acid. After centrifuging the samples, the supernatants were applied to Sep-Pak Plus C18 cartridges (Waters Associates) and washed with water (10 ml) and 20% (v/v) methanol in water (5 ml). Bound material was eluted with 5 ml of 40% (v/v) methanol in water and concentrated to dryness. The residue was dissolved in methanol and its fluoresence was measured (SLM-Aminco Instruments). The excitation and emission wavelengths for 2-naphthol derivatives were 293 nm and 395 nm, respectively. Phenanthrol derivatives were excited at 310 nm and the emission was measured at 365 nm.
Animal cells take up β-D-xylosides and prime glycosaminoglycan chains with great efficiency. For priming to occur, the glycoside must pass though the plasma membrane and enter the Golgi where the glycosyltransferases reside. […] Xylβ-0-2-naphthol has three hydroxyl groups, whereas Gal-0-2-naphtholhas four.

[6] = listed as peracetylated Galβ1→4GlcNAcβ-0-2-naphthalenemethanol
[7] = listed as acetylated Galβ1→4GlcNAcβ-0-2-naphthalenemethanol

For `CC(=O)N[C@H]1[C@H](OCc2ccc3ccccc3c2)O[C@H](COC(C)=O)[C@@H](O[C@@H]2O[C@H](COC(C)=O)[C@H](OC(C)=O)[C@H](OC(C)=O)[C@H]2OC(C)=O)[C@@H]1OC(C)=O` [AcLacNAc-NM, acetylated Galβ1→4GlcNAcβ-O-naphthalenemethanol], the “Uptake (in words)” value (F9 cells [1]) was “nearly as well as non-acetylated pentosides linked to naphthol”, the Uptake (F9 cells [1]) was 6.4 Arbitray units and the “Uptake (in words)” value (F9 cells [1]; [6]) was “nearly as efficient as Xylβ-0-napthol”. The “Priming of oligosaccharides (in words)” value (F9 cells [2]) was “primed oligosaccharides in F9 cells; also recorded: A significant lag phase preceded priming of oligosaccharides”, the “Priming of oligosaccharides (in words)” value (F9 cells [2]; listed as acetylated Galβ1→4GlcNAcβ-O-naphthalenemethanol) was “prime oligosaccharides in cultured cells” and the “Priming of oligosaccharides (in words)” value (F9 cells [2]; [6]) was “A large amount of labeled material was generated”. The Priming (F9 cells [2]) was 250 ^3 H-cpm/μg, the “Fraction of labeled oligosaccharides that were charged (bound to QAE-Sephadex)” value (F9 cells [2]) was “About 25%” and the “Fraction of labeled oligosaccharides that were charged (bound to QAE-Sephadex)” value (F9 cells [2]; [6]) was “approximately 25%”. For the same molecule, the “sLe^x expression on the cell surface, FACS (in words)” value (sLe^x on HL-60 cells; 200 μM acetylated sugars, 40 hours / two days, mAb CSLEX-1) was “the cell population shifted to a lower mean fluorescence”, the “Inhibition of sialyl Lewis X formation in HL-60 cells (in words)” value (from here on “Inhibition of sialyl Lewis X formation”) (sLe^x on HL-60 cells) was “inhibit the formation of sialyl Lewis X” and the “Inhibition of sialyl Lewis X formation” value (sLe^x on HL-60 cells; [7]) was “inhibition of sLe^x expression on the surface of HL-60 cells”. For the same molecule, the “Fold reduction in attached HL-60 cells” value ([3]; 100 μM AcLacNAc-NM, TNF-α HUVEC, static) was 8 -fold, the “Inhibition of HL-60 / leukocyte adhesion (in words)” value [3] was “reduced adhesion” and the “Inhibition of HL-60 / leukocyte adhesion (in words)” value [3, 7] was “The decrease in sLe^x expression had a corresponding effect on cell adhesion”.
In the case of Xylβ1→6Gal(Me)2 -0-2-naphthol, the “Concentration at which glycosaminoglycan chains are primed” value [4] is reported as 2 to 6 µM.
With `CC(=O)O[C@@H]1[C@@H](OC(C)=O)[C@H](Oc2ccc3ccccc3c2)OC[C@H]1OC(C)=O` [Xyl(Ac)3 β-0-2-naphthol] the “Priming of glycosaminoglycan chains (in words)” value [4] was “somewhat less effectively than the non-acetylated compound”.
`CC(=O)N[C@H]1[C@H](OCc2ccc3ccccc3c2)O[C@H](CO)[C@@H](O[C@@H]2O[C@H](CO)[C@H](O)[C@H](O)[C@H]2O)[C@@H]1O` [Galβ1→4GlcNAcβ-0-naphthalenemethanol, Galβ1→4GlcNAcβ-0-2-naphthalenemethanol] was tested, and the “Uptake (in words)” value (F9 cells [1]) was “very limited”, the Uptake (F9 cells [1]) was 0.5 Arbitray units and the “Priming of oligosaccharides (in words)” value (F9 cells [2]) was “increases with time and does not saturate for several hours”. The Priming (F9 cells [2]) was 20 ^3 H-cpm/μg.
In the case of `CO[C@H]1[C@@H](OC)[C@@H](CO[C@@H]2OC[C@@H](O)[C@H](O)[C@H]2O)O[C@@H](Oc2ccc3ccccc3c2)[C@@H]1OC` [Xylβ1→6Gal(Me)3-0-2-naphthol], the minimal effective concentration [4] is reported as < 1 µM and the “Priming of glycosaminoglycan chains (in words)” value [4] is reported as “nearly as well as Xylβ-0-2-napthol”.
`OC[C@H]1O[C@@H](Oc2ccc3ccccc3c2)[C@H](O)[C@@H](O)[C@H]1O` [Galβ-0-2-naphthol] was tested, and the “Uptake (in words)” value [5] was “slow and reached a lower steady-state level” and the Uptake [5] was 0.3 unit of fluorescence.
With `CC(=O)O[C@H]1[C@@H](OC(C)=O)[C@@H](CO[C@@H]2OC[C@@H](OC(C)=O)[C@H](OC(C)=O)[C@H]2OC(C)=O)O[C@@H](Oc2ccc3ccccc3c2)[C@@H]1OC(C)=O` [peracetylated Xylβ1→6Galβ-0-2-naphthol, Xyl(Ac)3 β1→6Gal(Ac)3-0-2-naphthol] the minimal effective concentration [4] was ~6 µM.
With `OC[C@H]1O[C@@H](O[C@@H]2CO[C@@H](Oc3ccc4ccccc4c3)[C@H](O)[C@H]2O)[C@H](O)[C@@H](O)[C@H]1O` [Galβ1→4Xylβ-0-2-naphthol] the “Uptake (in words)” value [5] was “not taken up al all”.
With `CC(=O)N[C@H]1[C@H](O[C@H]2[C@@H](OC(C)=O)[C@@H](COC(C)=O)O[C@@H](OCc3ccc4ccccc4c3)[C@@H]2OC(C)=O)O[C@H](COC(C)=O)[C@@H](OC(C)=O)[C@@H]1OC(C)=O` [AcGlcNAcGal-NM, Peracetylated GlcNAcβ1-3Galβ-0-naphthalenemethanol] the “Fold [3H]GlcN-labeled oligosaccharides primed compared with AcLacNAc-NM” value (F9 cells [2]; >25 μM) was ~10 -fold, the “Priming of oligosaccharides (in words)” value (F9 cells [2]) was “much more active than AcLacNAc-NM at low dose” and the “Priming of oligosaccharides (in words)” value (F9 cells [2]; listed as Acetylated GlcNAcβ1→3Galβ-O-naphthalenemethanol) was “primes oligosaccharides and inhibits cell adhesion more efficiently than acetylated Galβ1→4GlcNAcβ-X-naphthalenemethanol”. For the same molecule, the “Priming of oligosaccharides (in words)” value (F9 cells [2]; listed as acetylated GlcNAcβ1→3Galβ-O-naphthalenemethanol) was “prime oligosaccharides in cultured cells”, the “Inhibition of sialyl Lewis X formation” value (sLe^x on HL-60 cells) was “inhibit the formation of sialyl Lewis X” and the “Inhibition of HL-60 / leukocyte adhesion (in words)” value [3] was “inhibits cell adhesion more efficiently than acetylated Galβ1→4GlcNAcβ-X-naphthalenemethanol”.
With `OC[C@H]1O[C@@H](Oc2cc3ccccc3c3ccccc23)[C@H](O)[C@@H](O)[C@H]1O` [Galβ-0-9-phenanthrol] the Uptake [5] was 4.2 unit of fluorescence.
In the case of Xylβ1→6Gal(Me)-0-2-naphthol, the “Concentration of maximum effect on 35S-glycosaminoglycan synthesis” value [4] is reported as “approximately 60 μM” and the “Priming of glycosaminoglycan chains (in words)” value [4] is reported as “Higher concentrations were less effective”.
With `OC[C@H]1O[C@@H](O[C@H]2[C@@H](O)[C@@H](CO)O[C@@H](Oc3cc4ccccc4c4ccccc34)[C@@H]2O)[C@H](O)[C@@H](O)[C@H]1O` [Galβ1→3Galβ-0-9-phenanthrol] the Uptake [5] was “less than 0.1 unit of fluorescence”.
`OC[C@H]1O[C@@H](O[C@H]2[C@@H](O)[C@@H](CO)O[C@@H](Oc3ccc4ccccc4c3)[C@@H]2O)[C@H](O)[C@@H](O)[C@H]1O` [Galβ1→3Galβ-0-2-naphthol] was tested, and the “Uptake (in words)” value [5] was “not taken up al all”.
In the case of `O[C@H]1[C@@H](O)[C@@H](CO[C@@H]2OC[C@@H](O)[C@H](O)[C@H]2O)O[C@@H](Oc2ccc3ccccc3c2)[C@@H]1O` [Xylβ1→6Galβ-0-2-naphthol], the “Priming of glycosaminoglycan chains (in words)” value [4] is reported as “did not prime [^35 S]-glycosaminoglycans even at 500 μM”.
With `O[C@@H]1[C@@H](O)[C@@H](Oc2ccc3ccccc3c2)OC[C@@H]1O` [L-Araβ-0-2-naphthol, L-Araα-0-2-naphthol] the “Uptake (in words)” value [5] was “diffuse more readily than hexosides” and the Uptake [5] was 0.8 unit of fluorescence.
